Several values for one entry are separate records, joined by “and”; a condition that tells them apart may be missing. Identical values can stand only once.
Columns and labels:
p-IκBα and COX-2 = assay: LPS-induced acute inflammation, western blot of p-IκBα and COX-2 in lung and liver; type: in vivo, mouse; conditions: acute treatment, LPS 10 mg/kg
Method: Fig 6 Newly identified NBD mimetics suppress LPS-induced acute inflammation in vivo. (A) The bioavailability property of SR12460, SR12343, SR12454, and SR11481. Concentrations of NBD mimetics were determined in plasma, brain, muscle, spleen, and liver 2 h post a single i.p. injection of 10 mg/kg of drugs; n = 3 per group. (B) Shown is the model to induce LPS-mediated acute inflammation and the treatment regimen with NBD mimetics. Mouse image via http://www.clker.com/clipart-mice-blank.html (copyright-free). (C) NBD mimetics suppressed LPS-induced acute inflammation in liver and lung by down-regulating NF-κB target gene expression. Vehicle, SR12343, SR12460, and 8K-NBD peptide were dosed at 10 mg/kg 30 min prior to the LPS treatment. Acute inflammation was induced by i.p. injection of 10 mg/kg LPS. Lung and liver were collected 2–4 h post injection, and mRNA was extracted for qRT-PCR analysis. (D, E) Western blot analysis was performed to probe for the expression of p-IκBα and COX-2 at protein level in liver and lung tissues. (F) Serum levels of IL-6 were determine by ELISA. n = 3–8 each group. *P < 0.05, **P < 0.01. […] COX-2, cyclooxygenase 2; IL-6, interleukin 6; i.p., intraperitoneal; LPS, lipopolysaccharide; NBD, NEMO-binding domain; n.d., nondetectable; NEMO, NF-κB essential modulator; NF-κB, nuclear factor κB; qRT-PCR, quantitative real-time polymerase chain reaction. […]

HEK293 cells = conditions: Fig 2D; 100 μM, 24 h
Method: (A) HEK293 cells stably expressing NF-κB luciferase reporter were pretreated with indicated small molecules at 100 μM for 30 min, followed by stimulation with TNF-α (10 ng/ml) for 3 h. Luciferase activity was normalized to untreated stimulated control cells. […] (B) The dose-dependent response of ZINC12909780 was tested by NF-κB luciferase assay in HEK293 cells. Three independent experiments were performed, and data shown represent mean +/− SD. […] (D) HEK293 cells were cultured in the presence of 100 μM of indicated derivatives for 24 h, and cell survival was determined by MTT assay. Cell viability was calculated by normalizing to untreated cells. (E) Dose-dependent inhibitory effects were determined for ZINC5 at 0, 25, 50, and 100 μM by using NF-κB luciferase assay. (F) HEK293 were cultivated in the presence of ZINC5 at listed concentrations for 24 h, and cell survival was assessed by MTT assay. Data represent the mean +/− SD from 4–5 independent experiments. *P < 0.05; **P < 0.01; ***P < 0.001. Underlying data can be found in S1 Data. HEK293, human embryonic kidney 293 cells; MTT, 3-(4,5-dimethylthiazol-2-yl)-2,5-dephenyltetrazolium bromide colormetric assay for assessing cell metabolic activity; NF-κB, nuclear factor κB; TNF-α; tumor necrosis factor α; SD, standard deviation.
HEK293 cells were grown in a 96-well plate at 3 × 10^4 cells/well in triplicate and treated with DMSO or listed small molecules at indicated concentrations for 24 h. Cell survival was determined by adding 20 μl of 5 mg/ml MTT (thiazolyl blue tetrazolium bromide) to each well, followed by incubation in 37 °C for 3 h. Media were removed, and purple formazan was dissolved in 100 uL of DMSO. Absorbance was measured at 590 nm on a microplate reader (PerkinElmer, Waltham, MA). Cell viability was calculated by normalizing values to untreated controls.

SMILES	Phosphorylation of IκBα and levels of COX-2 in lung and liver (western blot) (p-IκBα and COX-2)	Cell viability normalized to untreated cells (MTT) (HEK293 cells)
O=C(CNc1ccc(Cl)cn1)NCCc1cccc(Br)c1 [SR12343]	reduced	–
O=C(COC(=O)Cc1ccccc1F)Nc1ccc(Cl)cn1 [ZINC5]	–	95 and 80 and 84 and 81

— article PMC6013238, “Development of novel NEMO-binding domain mimetics for inhibiting IKK/NF-κB activation” (PLoS Biology, 2018)
